Experimental data taken from ChEMBL document CHEMBL1201862, “PubChem BioAssay data set” (2004).
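Test compounds were applied to cells in 96-well plates for 48 hours at 5 doses. At the GI50, growth is halved.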 Calls of active or inactive are those of the source. Cut-off read from the data, not from the text of the source: active = GI50 up to about 1.1 µM and inactive = higher.

Tests used:
Assay in all cases: inhibition of tumour cell growth, NCI panel, 48 h
SNB-75 = system: SNB-75
SK-MEL-28 = system: SK-MEL-28
786-0 = system: 786-0
IGROV-1 = system: IGROV-1
COLO 205 = system: COLO 205
LOX IMVI = system: LOX IMVI
MDA-N = system: MDA-N
NCI-H460 = system: NCI-H460
BT-549 = system: BT-549
MDA-MB-435 = system: MDA-MB-435
T47D = system: T47D
OVCAR-3 = system: OVCAR-3
HT-29 = system: HT-29
HCC 2998 = system: HCC 2998
UACC-257 = system: UACC-257
SK-MEL-2 = system: SK-MEL-2
SW-620 = system: SW-620
MCF7 = system: MCF7
SF-539 = system: SF-539
CAKI-1 = system: CAKI-1
HL-60 = system: HL-60
SK-OV-3 = system: SK-OV-3
UACC-62 = system: UACC-62
EKVX = system: EKVX
NCI-H226 = system: NCI-H226
Malme-3M = system: Malme-3M
Hs-578T = system: Hs-578T
HOP-92 = system: HOP-92
UO-31 = system: UO-31
NCI-H522 = system: NCI-H522
U-251 = system: U-251
A549 = system: A549
KM12 = system: KM12
ACHN = system: ACHN
SNB-19 = system: SNB-19
HOP-62 = system: HOP-62
OVCAR-5 = system: OVCAR-5
MOLT-4 = system: MOLT-4
TK-10 = system: TK-10
A498 = system: A498
CCRF-CEM = system: CCRF-CEM
HCT-15 = system: HCT-15
OVCAR-8 = system: OVCAR-8
SK-MEL-5 = system: SK-MEL-5
MDA-MB-231 = system: MDA-MB-231
M14 = system: M14
K562 = system: K562
SF-268 = system: SF-268
PC-3 = system: PC-3
NCI/ADR-RES = system: NCI/ADR-RES
SF-295 = system: SF-295
DU-145 = system: DU-145
SR = system: SR
RPMI-8226 = system: RPMI-8226
SN12C = system: SN12C
NCI-H23 = system: NCI-H23
HCT-116 = system: HCT-116
OVCAR-4 = system: OVCAR-4
RXF 393 = system: RXF 393

Measured: GI50

O=C1C=C(NCC(c2ccccc2)c2ccccc2)C(=O)c2ncccc21
inactive: SK-MEL-28 2.85 µM | 786-0 2.88 µM | IGROV-1 1.38 µM | COLO 205 9.89 µM | MDA-N 1.6 µM | MDA-MB-435 1.35 µM | T47D 3.08 µM | HT-29 7.45 µM | SK-MEL-2 2.28 µM | SW-620 1.83 µM | MCF7 1.4 µM | SF-539 3.09 µM | CAKI-1 2.4 µM | HL-60 1.15 µM | SK-OV-3 7.33 µM | UACC-62 1.39 µM | EKVX 2.07 µM | NCI-H226 3.1 µM | Malme-3M 1.36 µM | Hs-578T 2.63 µM | HOP-92 2.26 µM | NCI-H522 1.34 µM | U-251 2.05 µM | KM12 2.19 µM | ACHN 2.28 µM | SNB-19 2.58 µM | HOP-62 1.57 µM | OVCAR-5 5.14 µM | MOLT-4 2.31 µM | TK-10 17 µM | A498 2.24 µM | CCRF-CEM 2.64 µM | OVCAR-8 2.39 µM | MDA-MB-231 2.67 µM | M14 1.61 µM | K562 1.38 µM | SF-268 2.53 µM | PC-3 1.75 µM | NCI/ADR-RES 2.49 µM | SF-295 1.74 µM | DU-145 1.96 µM | SR 1.63 µM | RPMI-8226 1.72 µM | SN12C 2.1 µM | NCI-H23 1.54 µM | HCT-116 8.53 µM | OVCAR-4 1.84 µM
0.504 µM: HCT-15
active: SNB-75 0.507 µM | LOX IMVI 1.11 µM | NCI-H460 0.518 µM | BT-549 1.06 µM | OVCAR-3 0.991 µM | HCC 2998 0.785 µM | UACC-257 0.877 µM | UO-31 1.11 µM | A549 0.668 µM | SK-MEL-5 0.427 µM

COC(=O)[C@H]1[C@@H](C(C)C)O[C@@H](C(C)C)O[C@H]1C(F)(F)F
> 100 µM: HCT-15
inactive: SNB-75 > 100 µM | SK-MEL-28 > 100 µM | 786-0 > 100 µM | IGROV-1 37.9 µM | COLO 205 > 100 µM | LOX IMVI > 100 µM | MDA-N > 100 µM | NCI-H460 > 100 µM | BT-549 > 100 µM | MDA-MB-435 > 100 µM | T47D > 100 µM | OVCAR-3 > 100 µM | HT-29 > 100 µM | HCC 2998 > 100 µM | UACC-257 > 100 µM | SW-620 > 100 µM | MCF7 > 100 µM | SF-539 > 100 µM | CAKI-1 > 100 µM | HL-60 > 100 µM | SK-OV-3 > 100 µM | UACC-62 > 100 µM | EKVX > 100 µM | NCI-H226 > 100 µM | Malme-3M > 100 µM | Hs-578T > 100 µM | HOP-92 44.6 µM | UO-31 > 100 µM | NCI-H522 > 100 µM | RXF 393 > 100 µM | U-251 > 100 µM | A549 > 100 µM | KM12 > 100 µM | ACHN > 100 µM | SNB-19 > 100 µM | HOP-62 > 100 µM | OVCAR-5 > 100 µM | MOLT-4 > 100 µM | TK-10 > 100 µM | A498 > 100 µM | CCRF-CEM > 100 µM | OVCAR-8 > 100 µM | SK-MEL-5 > 100 µM | MDA-MB-231 > 100 µM | M14 > 100 µM | K562 > 100 µM | SF-268 > 100 µM | PC-3 > 100 µM | NCI/ADR-RES > 100 µM | SF-295 > 100 µM | DU-145 > 100 µM | SR > 100 µM | RPMI-8226 > 100 µM | SN12C > 100 µM | NCI-H23 > 100 µM | HCT-116 > 100 µM | OVCAR-4 > 100 µM

CC1(C)CCC[C@](C)([C@H]2CC[C@]3(C)[C@@H]2[C@H](O)C[C@@H]2[C@@]4(C)CC[C@H](O)C(C)(C)[C@@H]4[C@H](O)C[C@]23C)O1
inactive: SNB-75 10.7 µM | SK-MEL-28 11.9 µM | 786-0 19 µM | IGROV-1 17.5 µM | COLO 205 10 µM | LOX IMVI 17.5 µM | MDA-N 13.5 µM | NCI-H460 10.1 µM | BT-549 13.8 µM | MDA-MB-435 12.2 µM | T47D 10.6 µM | HT-29 3.55 µM | HCC 2998 13.9 µM | UACC-257 13.7 µM | SK-MEL-2 13 µM | SW-620 13.2 µM | MCF7 9.73 µM | SF-539 11.7 µM | CAKI-1 5.6 µM | HL-60 2.16 µM | SK-OV-3 16.9 µM | UACC-62 13.3 µM | EKVX 13.6 µM | NCI-H226 15.7 µM | Malme-3M 19.1 µM | Hs-578T 12.9 µM | HOP-92 13.6 µM | UO-31 11.7 µM | NCI-H522 12.1 µM | U-251 12.3 µM | A549 9.68 µM | KM12 11.1 µM | ACHN 12.1 µM | SNB-19 11.5 µM | OVCAR-5 20.1 µM | MOLT-4 3.78 µM | TK-10 11.3 µM | A498 12.8 µM | CCRF-CEM 3.09 µM | OVCAR-8 16.9 µM | SK-MEL-5 3.64 µM | MDA-MB-231 17.3 µM | M14 14.9 µM | K562 5.48 µM | SF-268 13.8 µM | PC-3 10.9 µM | NCI/ADR-RES 15.2 µM | SF-295 10.5 µM | DU-145 15.8 µM | SR 5.31 µM | SN12C 14.3 µM | NCI-H23 11.3 µM | HCT-116 15.9 µM | OVCAR-4 10.6 µM
11.6 µM: HCT-15
